Starred links: 1 amine or outer side, 2 acyl side, 3 side chain; linkers in the order of their positions; H or OH if unused. Positions of bridges follow the written chain, without caps; N, C: chain ends. Non-standard residues stand in square brackets, D forms with d. Residues, ends and D or L forms follow the SMILES beside them. Groups on a side chain read outwards from the residue. ξ: configuration not given here. *: point of attachment. X30 = CC(NC(=O)Cc1ccc(N)cc1)C(N[*:1])C(=O)[*:2]; X17 = CSC[C@H](N)C(=O)NC(C)C(N[*:1])C(=O)[*:2]; ξAbu(βξ-NH2) = CC(N[*:3])C(N[*:1])C(=O)[*:2]; Lys(Me3) = C[N+](C)(C)CCCC[C@H](N)C(=O)O; Arg(Me2s) = CN=C(NC)NCCC[C@H](N)C(=O)O; Pentadecanoyl = CCCCCCCCCCCCCCC(=O)*; ξAsp(βξ-Me) = CC(C(=O)O)C(N)C(=O)O; Dab = NCC[C@H](N)C(=O)O; Pip = O=C(O)[CH]1CCCCN1; ξD = NC(CC(=O)O)C(=O)O; ξPip = O=C(O)C1CCCCN1; ξV = CC(C)C(N)C(=O)O; ξP = O=C(O)C1CCCN1; GABA = NCCCC(=O)O

Usually MIC stands for the least concentration at which growth counts as inhibited.

In this test the test system is Staphylococcus aureus (MSSA). As to conditions: 24 h. An outline of the steps: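 Broth microdilution MIC per NCCLS M7-A6 with doubling serial dilutions, in cation-adjusted Mueller-Hinton broth supplemented with 0.625 mM calcium.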
Turning to `CCCCCCCCCCCCCCC(=O)NC(CC(=O)O)C(=O)NC1C(=O)N2CCCCC2C(=O)NC(C(C)C(=O)O)C(=O)NC(CC(=O)O)C(=O)NCC(=O)NC(CC(=O)O)C(=O)NCC(=O)NC(C(C)NC(=O)CCNC(=O)[C@@H](N)CCCCN)C(=O)NC(C(C)C)C(=O)N2CCCC2C(=O)NC1C` (stereo partly drawn) [Compound 155, C15-Amphomycin-9-(β-Ala)-Lys], the minimum inhibitory concentration (MIC) is 8 µg/mL. For the compound `CCCCCCCCCCCCCCC(=O)NC(CC(=O)O)C(=O)NC1C(=O)N2CCCCC2C(=O)NC(C(C)C(=O)O)C(=O)NC(CC(=O)O)C(=O)NCC(=O)NC(CC(=O)O)C(=O)NCC(=O)NC(C(C)NC(=O)CCCNC(=O)[C@@H](N)CCCCN)C(=O)NC(C(C)C)C(=O)N2CCCC2C(=O)NC1C` (some centres unmarked) [Compound 156, C15-Amphomycin-9-GABA-Lys], the MIC was 1 µg/mL. Regarding `CCCCCCCCCCCCCCC(=O)NC(CC(=O)O)C(=O)NC1C(=O)N2CCCCC2C(=O)NC(C(C)C(=O)O)C(=O)NC(CC(=O)O)C(=O)NCC(=O)NC(CC(=O)O)C(=O)NCC(=O)NC(C(C)NC(=O)CNC(=O)[C@@H](N)CN)C(=O)NC(C(C)C)C(=O)N2CCCC2C(=O)NC1C` (some centres unmarked) [Compound 157, C15-Amphomycin-9-Gly-Dap], the MIC was 4 to 8 µg/mL. For the compound `CCCCCCCCCCCCCCC(=O)NC(CC(=O)O)C(=O)NC1C(=O)N2CCCCC2C(=O)NC(C(C)C(=O)O)C(=O)NC(CC(=O)O)C(=O)NCC(=O)NC(CC(=O)O)C(=O)NCC(=O)NC(C(C)NC(=O)CNC(=O)[C@@H](N)CCCCCN)C(=O)NC(C(C)C)C(=O)N2CCCC2C(=O)NC1C` (some centres unmarked) [Compound 158, C15-Amphomycin-9-Gly-hLys], the MIC lay in the range of 1 to 2 µg/mL. `CCCCCCCCCCCCCCC(=O)NC(CC(=O)O)C(=O)NC1C(=O)N2CCCCC2C(=O)NC(C(C)C(=O)O)C(=O)NC(CC(=O)O)C(=O)NCC(=O)NC(CC(=O)O)C(=O)NCC(=O)NC(C(C)NC(=O)CCCNC(=O)[C@@H](N)CCN)C(=O)NC(C(C)C)C(=O)N2CCCC2C(=O)NC1C` (stereo partly drawn) [Compound 159, C15-Amphomycin-9-GABA-gDab] (Pentadecanoyl-[ξD][ξAbu(βξ-NH2)][ξPip][ξAsp(βξ-Me)][ξD]G[ξD]G[ξAbu(βξ-NH2)]([GABA-Dab])[ξV][ξP]; lactam 2-C): the MIC was 0.5 to 1 µg/mL. With `CCCCCCCCCCCCCCC(=O)NC(CC(=O)O)C(=O)NC1C(=O)N2CCCCC2C(=O)NC(C(C)C(=O)O)C(=O)NC(CC(=O)O)C(=O)NCC(=O)NC(CC(=O)O)C(=O)NCC(=O)NC(C(C)NC(=O)C(C)(C)N)C(=O)NC(C(C)C)C(=O)N2CCCC2C(=O)NC1C` (centres unmarked) [Compound 161, C15-Amphomycin-9-Aib] the figure was 8 µg/mL; with `CCCCCCCCCCCCCCC(=O)NC(CC(=O)O)C(=O)NC1C(=O)N2CCCCC2C(=O)NC(C(C)C(=O)O)C(=O)NC(CC(=O)O)C(=O)NCC(=O)NC(CC(=O)O)C(=O)NCC(=O)NC(C(C)NC(=O)[C@@H](N)CSC)C(=O)NC(C(C)C)C(=O)N2CCCC2C(=O)NC1C` (stereo partly drawn) [Compound 162, C15-Amphomycin-9-MeCys] (Pentadecanoyl-[ξD][ξAbu(βξ-NH2)][ξPip][ξAsp(βξ-Me)][ξD]G[ξD]G[X17][ξV][ξP]; lactam 2-C), 8 µg/mL; with `CCCCCCCCCCCCCCC(=O)NC(CC(=O)O)C(=O)NC1C(=O)N2CCCCC2C(=O)NC(C(C)C(=O)O)C(=O)NC(CC(=O)O)C(=O)NCC(=O)NC(CC(=O)O)C(=O)NCC(=O)NC(C(C)NC(=O)[C@@H](N)CCC)C(=O)NC(C(C)C)C(=O)N2CCCC2C(=O)NC1C` (some centres unmarked) [Compound 163, C15-Amphomycin-9-Nvl], 8 µg/mL. With `CCCCCCCCCCCCCCC(=O)NC(CC(=O)O)C(=O)NC1C(=O)N2CCCCC2C(=O)NC(C(C)C(=O)O)C(=O)NC(CC(=O)O)C(=O)NCC(=O)NC(CC(=O)O)C(=O)NCC(=O)NC(C(C)NC(=O)[C@@H](N)CC)C(=O)NC(C(C)C)C(=O)N2CCCC2C(=O)NC1C` (some centres unmarked) [Compound 164, C15-Amphomycin-9-Abu] the figure was 4 µg/mL; with `CCCCCCCCCCCCCCC(=O)NC(CC(=O)O)C(=O)NC1C(=O)N2CCCCC2C(=O)NC(C(C)C(=O)O)C(=O)NC(CC(=O)O)C(=O)NCC(=O)NC(CC(=O)O)C(=O)NCC(=O)NC(C(C)NC(=O)[C@@H](N)CCCNC(N)=O)C(=O)NC(C(C)C)C(=O)N2CCCC2C(=O)NC1C` (some centres unmarked) [Compound 165, C15-Amphomycin-9-Cit], 4 µg/mL. With `CCCCCCCCCCCCCCC(=O)NC(CC(=O)O)C(=O)NC1C(=O)N2CCCCC2C(=O)NC(C(C)C(=O)O)C(=O)NC(CC(=O)O)C(=O)NCC(=O)NC(CC(=O)O)C(=O)NCC(=O)NC(C(C)NC(=O)[C@@H](N)CCCNC(=NC)NC)C(=O)NC(C(C)C)C(=O)N2CCCC2C(=O)NC1C` (stereo partly drawn) [Compound 166, C15-Amphomycin-9-(ME)2Arg] (Pentadecanoyl-[ξD][ξAbu(βξ-NH2)][ξPip][ξAsp(βξ-Me)][ξD]G[ξD]G[ξAbu(βξ-NH2)](Arg(Me2s))[ξV][ξP]; lactam 2-C) the figure was 32 µg/mL; with `CCCCCCCCCCCCCCC(=O)NC(CC(=O)O)C(=O)NC1C(=O)N2CCCCC2C(=O)NC(C(C)C(=O)O)C(=O)NC(CC(=O)O)C(=O)NCC(=O)NC(CC(=O)O)C(=O)NCC(=O)NC(C(C)NC(=O)[C@@H]2C[C@@H](O)CN2)C(=O)NC(C(C)C)C(=O)N2CCCC2C(=O)NC1C` (some centres unmarked) [Compound 167, C15-Amphomycin-9-Hyp], 4 to 8 µg/mL; with `CCCCCCCCCCCCCCC(=O)NC(CC(=O)O)C(=O)NC1C(=O)N2CCCCC2C(=O)NC(C(C)C(=O)O)C(=O)NC(CC(=O)O)C(=O)NCC(=O)NC(CC(=O)O)C(=O)NCC(=O)NC(C(C)NC(=O)Cc2ccc(N)cc2)C(=O)NC(C(C)C)C(=O)N2CCCC2C(=O)NC1C` (stereo not drawn) [Compound 168, C15-Amphomycin-9-(p-Apa)] (Pentadecanoyl-D[ξAbu(βξ-NH2)][Pip][ξAsp(βξ-Me)]DGDG[X30]VP; lactam 2-C; configuration not given here), 32 to 64 µg/mL.

As for `CCCCCCCCCCCCCCC(=O)NC(CC(=O)O)C(=O)NC1C(=O)N2CCCCC2C(=O)NC(C(C)C(=O)O)C(=O)NC(CC(=O)O)C(=O)NCC(=O)NC(CC(=O)O)C(=O)NCC(=O)NC(C(C)NC(=O)[C@@H](N)C(C)C)C(=O)NC(C(C)C)C(=O)N2CCCC2C(=O)NC1C` (some centres unmarked) [Compound 169, C15-Amphomycin-9-Val], the MIC was found to be 4 µg/mL. With `CCCCCCCCCCCCCCC(=O)NC(CC(=O)O)C(=O)NC1C(=O)N2CCCCC2C(=O)NC(C(C)C(=O)O)C(=O)NC(CC(=O)O)C(=O)NCC(=O)NC(CC(=O)O)C(=O)NCC(=O)NC(C(C)NC(=O)[C@@H](N)CCCC[N+](C)(C)C)C(=O)NC(C(C)C)C(=O)N2CCCC2C(=O)NC1C` (stereo partly drawn) [Compound 170, C15-Amphomycin-9-(ME)3Lys] (Pentadecanoyl-[ξD][ξAbu(βξ-NH2)][ξPip][ξAsp(βξ-Me)][ξD]G[ξD]G[ξAbu(βξ-NH2)](Lys(Me3))[ξV][ξP]; lactam 2-C), the MIC was 2 µg/mL. Regarding `CCCCCCCCCCCCCCC(=O)NC(CC(=O)O)C(=O)NC1C(=O)N2CCCCC2C(=O)NC(C(C)C(=O)O)C(=O)NC(CC(=O)O)C(=O)NCC(=O)NC(CC(=O)O)C(=O)NCC(=O)NC(C(C)NC(=O)[C@@H](N)CCCC)C(=O)NC(C(C)C)C(=O)N2CCCC2C(=O)NC1C` (some centres unmarked) [Compound 171, C15-Amphomycin-9-Nle], the MIC stood at 8 µg/mL. For `CCCCCCCCCCCCCCC(=O)NC(CC(=O)O)C(=O)NC1C(=O)N2CCCCC2C(=O)NC(C(C)C(=O)O)C(=O)NC(CC(=O)O)C(=O)NCC(=O)NC(CC(=O)O)C(=O)NCC(=O)NC(C(C)NC(=O)CCNC(=O)CCCCN)C(=O)NC(C(C)C)C(=O)N2CCCC2C(=O)NC1C` (stereo not drawn) [Compound 173, C15-Amphomycin-9-(β-Ala)-(5-Ava)] the value was 1 µg/mL.

Values taken from patent US7868135B2, “Compositions of lipopeptide antibiotic derivatives and methods of use thereof” (priority 2003, dated 2011).
